Reference: patent US10501466B2, “WDR5 inhibitors and modulators” (Vanderbilt University, priority 2017, dated 2019)

Key:
WDR5 = WDR5 (Homo sapiens (Human), UniProt P61964); conditions: FPA and TR-FRET binding affinity, WDR5 WIN-site
[1] = tested on: MV4,11 human leukemia cells; assay: cells; conditions: MV4-11, 168 h
Experimental: Anti-Proliferative Activity Using MLL-Harboring and Non-MLL Cell Lines.
Viability assays are performed by dispensing 5,000 cells into each well of an opaque 96-well plate and adding compounds at the indicated concentrations in a final volume of 100 μL and a final concentration of DMSO of 0.1% for all samples. After a set incubation period, either a 3 day or 7 day protocol, the viability of cells in each well is assessed using the CellTiter-Glo assay (Promega), read on a GloMax 96 Microplane Luminometer (Promega). Serial dilutions of each cell type are included in all assays to generate standard curves and determine assay measurements are taken within the dynamic range of the instrument. GI50 values are calculated based on three biological replicates, each with three technical replicates. Data are expressed as mean plus/minus S.E.M.

COc1cccc(C(=O)N(CC2CC2)C2CCc3ccc(-c4cn5c(n4)CCC5)cc32)c1 (stereo not drawn) [Example B1, N-(cyclopropylmethyl)-N-(6-(6,7-dihydro-5H-pyrrolo[1,2-a]imidazol-2-yl)-2,3-dihydro-1H-inden-1-yl)-3-methoxybenzamide]
Ki (WDR5): 0.693 µM

Cc1ccc(C(=O)NC2CCc3ccc(-c4cn5c(n4)CCC5)cc32)cc1C(F)(F)F (stereo not drawn) [Example B2, N-(6-(6,7-dihydro-5H-pyrrolo[1,2-a]imidazol-2-yl)-2,3-dihydro-1H-inden-1-yl)-4-methyl-3-(trifluoromethyl)benzamide]
Ki (WDR5): 1.38 µM

CCOc1cccc(C(=O)NC2CCc3ccc(-c4cn5c(n4)CCC5)cc32)c1 (stereo not drawn) [Example B4, N-(6-(6,7-dihydro-5H-pyrrolo[1,2-a]imidazol-2-yl)-2,3-dihydro-1H-inden-1-yl)-3-ethoxybenzamide]
Ki (WDR5): 0.0191 µM

COc1cc(C)cc(C(=O)NC2CCc3ccc(-c4cn5c(n4)CCC5)cc32)c1 (stereo not drawn) [Example B5, N-(6-(6,7-dihydro-5H-pyrrolo[1,2-a]imidazol-2-yl)-2,3-dihydro-1H-inden-1-yl)-3-methoxy-5-methylbenzamide]
Ki (WDR5): 0.027 µM

CC(=O)N1CCCC(C(=O)NC2CCc3ccc(-c4cn5c(n4)CCC5)cc32)C1 (stereo not drawn) [Example B7, 1-acetyl-N-(6-(6,7-dihydro-5H-pyrrolo[1,2-a]imidazol-2-yl)-2,3-dihydro-1H-inden-1-yl)piperidine-3-carboxamide]
Ki (WDR5): 0.033 µM

CCC(=O)N1CCCC(C(=O)NC2CCc3ccc(-c4cn5c(n4)CCC5)cc32)C1 (stereo not drawn) [Example B8, N-(6-(6,7-dihydro-5H-pyrrolo[1,2-a]imidazol-2-yl)-2,3-dihydro-1H-inden-1-yl)-1-propionylpiperidine-3-carboxamide]
Ki (WDR5): 0.021 µM

O=C(NC1CCc2ccc(-c3cn4c(n3)CCC4)cc21)C1CCCN(C(=O)CC(F)(F)F)C1 (stereo not drawn) [Example B9, N-(6-(6,7-dihydro-5H-pyrrolo[1,2-a]imidazol-2-yl)-2,3-dihydro-1H-inden-1-yl)-1-(3,3,3-trifluoropropanoyl)piperidine-3-carboxamide]
Ki (WDR5): 0.09 µM

CC(C)C(=O)N1CCCC(C(=O)NC2CCc3ccc(-c4cn5c(n4)CCC5)cc32)C1 (stereo not drawn) [Example B10, N-(6-(6,7-dihydro-5H-pyrrolo[1,2-a]imidazol-2-yl)-2,3-dihydro-1H-inden-1-yl)-1-isobutyrylpiperidine-3-carboxamide]
Ki (WDR5): 0.0709 µM

O=C(Cc1ccc(Cl)c(Cl)c1)N[C@@H]1CCc2ccc(-c3cn4c(n3)CCC4)cc21 [Example B11, (R)-2-(3,4-dichlorophenyl)-N-(6-(6,7-dihydro-5H-pyrrolo[1,2-a]imidazol-2-yl)-2,3-dihydro-1H-inden-1-yl)acetamide]
GI50 [1]: 8.89 µM

COc1cc(C(=O)N[C@@H]2CCc3ccc(-c4cn5c(n4)CCC5)cc32)ccc1C [Example B12, (R)—N-(6-(6,7-dihydro-5H-pyrrolo[1,2-a]imidazol-2-yl)-2,3-dihydro-1H-inden-1-yl)-3-methoxy-4-methylbenzamide]
GI50 [1]: 17.2 µM

CC(=O)N1CCCC(C(=O)N[C@@H]2CCc3ccc(-c4cn5c(n4)CCC5)cc32)C1 (stereo partly drawn) [Example B13, 1-acetyl-N—((R)-6-(6,7-dihydro-5H-pyrrolo[1,2-a]imidazol-2-yl)-2,3-dihydro-1H-inden-1-yl)piperidine-3-carboxamide]
Ki (WDR5): 0.0174 µM

COc1cc(C(=O)N[C@@H]2CCCc3ccc(-c4cn5c(n4)CCC5)cc32)ccc1C [Example B14, (R)—N-(7-(6,7-dihydro-5H-pyrrolo[1,2-a]imidazol-2-yl)-1,2,3,4-tetrahydronaphthalen-1-yl)-3-methoxy-4-methylbenzamide]
GI50 [1]: 22.3 µM

O=C(Cc1ccc(Cl)c(F)c1)N[C@@H]1CCc2ccc(-c3cn4c(n3)CCC4)cc21 [Example B15, (R)-2-(4-chloro-3-fluorophenyl)-N-(6-(6,7-dihydro-5H-pyrrolo[1,2-a]imidazol-2-yl)-2,3-dihydro-1H-inden-1-yl)acetamide]
Ki (WDR5): 0.00237 µM

CCC(=O)N1CCCC(C(=O)N[C@@H]2CCc3ccc(-c4cn5c(n4)CCC5)cc32)C1 (stereo partly drawn) [Example B16, N—((R)-6-(6,7-dihydro-5H-pyrrolo[1,2-a]imidazol-2-yl)-2,3-dihydro-1H-inden-1-yl)-1-propionylpiperidine-3-carboxamide]
Ki (WDR5): 0.00716 µM

CC(=O)N1CCCC(C(=O)N[C@@H]2CCCc3ccc(-c4cn5c(n4)CCC5)cc32)C1 (stereo partly drawn) [Example B17, 1-acetyl-N—((R)-7-(6,7-dihydro-5H-pyrrolo[1,2-a]imidazol-2-yl)-1,2,3,4-tetrahydronaphthalen-1-yl)piperidine-3-carboxamide]
Ki (WDR5): 0.0362 µM

CCC(=O)N1CCCC(C(=O)N[C@@H]2CCCc3ccc(-c4cn5c(n4)CCC5)cc32)C1 (stereo partly drawn) [Example B18, N—((R)-7-(6,7-dihydro-5H-pyrrolo[1,2-a]imidazol-2-yl)-1,2,3,4-tetrahydronaphthalen-1-yl)-1-propionylpiperidine-3-carboxamide]
Ki (WDR5): 0.0143 µM

COc1ccc(C(=O)N[C@@H]2CCc3ccc(-c4cn5c(n4)CCC5)cc32)cn1 [Example B19, (R)—N-(6-(6,7-dihydro-5H-pyrrolo[1,2-a]imidazol-2-yl)-2,3-dihydro-1H-inden-1-yl)-6-methoxynicotinamide]
Ki (WDR5): 0.172 µM

O=C(N[C@@H]1CCc2ccc(-c3cn4c(n3)CCC4)cc21)c1ccnc(Cl)c1 [Example B20, (R)-2-chloro-N-(6-(6,7-dihydro-5H-pyrrolo[1,2-a]imidazol-2-yl)-2,3-dihydro-1H-inden-1-yl)isonicotinamide]
Ki (WDR5): 0.0956 µM

Cc1cnc(Cl)c(C(=O)N[C@@H]2CCc3ccc(-c4cn5c(n4)CCC5)cc32)c1 [Example B21, (R)-2-chloro-N-(6-(6,7-dihydro-5H-pyrrolo[1,2-a]imidazol-2-yl)-2,3-dihydro-1H-inden-1-yl)-5-methylnicotinamide]
Ki (WDR5): 0.0229 µM

Cc1cc(C(=O)N[C@@H]2CCc3ccc(-c4cn5c(n4)CCC5)cc32)cc(=O)[nH]1 [Example B22, (R)—N-(6-(6,7-dihydro-5H-pyrrolo[1,2-a]imidazol-2-yl)-2,3-dihydro-1H-inden-1-yl)-6-methyl-2-oxo-1,2-dihydropyridine-4-carboxamide]
Ki (WDR5): 0.426 µM

Cc1cc(Cl)nc(C(=O)N[C@@H]2CCc3ccc(-c4cn5c(n4)CCC5)cc32)c1 [Example B23, (R)-6-chloro-N-(6-(6,7-dihydro-5H-pyrrolo[1,2-a]imidazol-2-yl)-2,3-dihydro-1H-inden-1-yl)-4-methylpicolinamide]
Ki (WDR5): 0.769 µM

Cc1ccc(C(=O)N[C@@H]2CCc3ccc(-c4cn5c(n4)CCC5)cc32)cc1O [Example B25, (R)—N-(6-(6,7-dihydro-5H-pyrrolo[1,2-a]imidazol-2-yl)-2,3-dihydro-1H-inden-1-yl)-3-hydroxy-4-methylbenzamide]
Ki (WDR5): 0.71 µM

COc1cncc(C(=O)N[C@@H]2CCc3ccc(-c4cn5c(n4)CCC5)cc32)c1 [Example B26, (R)—N-(6-(6,7-dihydro-5H-pyrrolo[1,2-a]imidazol-2-yl)-2,3-dihydro-1H-inden-1-yl)-5-methoxynicotinamide]
Ki (WDR5): 0.0185 µM

CC(=O)Nc1cc(C(=O)N[C@@H]2CCc3ccc(-c4cn5c(n4)CCC5)cc32)ccc1C [Example B27, (R)-3-acetamido-N-(6-(6,7-dihydro-5H-pyrrolo[1,2-a]imidazol-2-yl)-2,3-dihydro-1H-inden-1-yl)-4-methylbenzamide]
Ki (WDR5): 0.73 µM

Cc1ccc(C(=O)N[C@@H]2CCc3ccc(-c4cn5c(n4)CCC5)cc32)c(Cl)n1 [Example B28, (R)-2-chloro-N-(6-(6,7-dihydro-5H-pyrrolo[1,2-a]imidazol-2-yl)-2,3-dihydro-1H-inden-1-yl)-6-methylnicotinamide]
Ki (WDR5): 0.169 µM

COc1cc(C(=O)N[C@@H]2CCc3ccc(-c4cn5c(n4)CCC5)cc32)cc(OC)c1C [Example B29, (R)—N-(6-(6,7-dihydro-5H-pyrrolo[1,2-a]imidazol-2-yl)-2,3-dihydro-1H-inden-1-yl)-3,5-dimethoxy-4-methylbenzamide]
GI50 [1]: 7.25 µM

O=C(N[C@@H]1CCc2ccc(-c3cn4c(n3)CCC4)cc21)c1ccncc1F [Example B30, (R)—N-(6-(6,7-dihydro-5H-pyrrolo[1,2-a]imidazol-2-yl)-2,3-dihydro-1H-inden-1-yl)-3-fluoroisonicotinamide]
Ki (WDR5): 3.75 µM

O=C(N[C@@H]1CCc2ccc(-c3cn4c(n3)CCC4)cc21)c1ccc(=O)[nH]c1 [Example B31, (R)—N-(6-(6,7-dihydro-5H-pyrrolo[1,2-a]imidazol-2-yl)-2,3-dihydro-1H-inden-1-yl)-6-oxo-1,6-dihydropyridine-3-carboxamide]
Ki (WDR5): 0.835 µM

O=C(N[C@@H]1CCc2ccc(-c3cn4c(n3)CCC4)cc21)c1cncc(F)c1 [Example B32, (R)—N-(6-(6,7-dihydro-5H-pyrrolo[1,2-a]imidazol-2-yl)-2,3-dihydro-1H-inden-1-yl)-5-fluoronicotinamide]
Ki (WDR5): 0.568 µM

COc1cc(C(=O)N[C@@H]2CCN(C(C)=O)c3ccc(-c4cn5c(n4)CCC5)cc32)ccc1C [Example B33, (R)—N-(1-acetyl-6-(6,7-dihydro-5H-pyrrolo[1,2-a]imidazol-2-yl)-1,2,3,4-tetrahydroquinolin-4-yl)-3-methoxy-4-methylbenzamide]
Ki (WDR5): 0.0222 µM
